US10738028B2, “Spiro three-membered ring, spiro five-membered ring peptide deformylase inhibitor and use thereof in antibacteria and anti-tumor” (priority 2016, dated 2020)

Experiments:
Assay type in all cases: cell-based
[1] = system: HCT-116 colorectal cancer cell line; test: CCK-8 proliferation inhibition; conditions: 72 hours, CCK-8
Summary of the method: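 Cells seeded at 2000 cells/well, cultured overnight at 37 °C, 5% CO2, then exposed to compound (DMSO; control 1‰ DMSO) for 72 h in McCoy's 5A with 10% newborn bovine serum. Viability read with 1:10 diluted CCK-8.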

[2] = system: methicillin-sensitive Staphylococcus aureus (MSSA); test: MIC, two-fold agar dilution (CLSI), clinical isolates
Summary of the method: (§1)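 Following the American Clinical and Laboratory Standards Institute procedure, agar two-fold dilution served to determine minimum inhibitory concentrations.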

[3] = system: methicillin-sensitive Staphylococcus epidermidis (MSSE); test: as above
Summary of the method: as §1

[4] = system: Moraxella catarrhalis (BCA); test: as above
Summary of the method: as §1

[5] = system: Enterococcus faecium (EFM); test: as above
Summary of the method: as §1

[6] = system: methicillin-resistant Staphylococcus aureus (MRSA); test: as above
Summary of the method: as §1

[7] = system: methicillin-resistant Staphylococcus epidermidis (MRSE); test: as above
Summary of the method: as §1

[8] = system: Escherichia coli (including ESBLs, non-ESBLs); test: as above
Summary of the method: as §1

[9] = system: Streptococcus pneoumoniae (SPN); test: as above; conditions: strain SPN 16-2
Summary of the method: as §1

[10] = system: Enterococcus faecalis (EFA); test: as above
Summary of the method: as §1

[11] = system: MGC-803 gastric cancer cell line; test: CCK-8 proliferation inhibition
Summary of the method: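 Cells seeded at 2000 cells/well, cultured overnight at 37 °C, 5% CO2, then exposed 72 h to compound dilutions in medium with 10% newborn bovine serum (1‰ DMSO control). Viability read with 1:10 diluted CCK-8 solution. Media: PC3 in F12; MGC-803 and Jurkat in 1640; MCF-7 in DMEM high glucose.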

[12] = system: BEL-7402 liver cancer cell line; test: CCK-8 proliferation inhibition
Summary of the method: (§2)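 Plating at 2000 cells/well, then incubation overnight at 37° C. Next, a range of compound concentrations for 72 hours (control 1‰ DMSO). Finally, medium decanted and CCK-8 diluted 1:10 added.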

[13] = system: A549 lung cancer cell line; test: CCK-8 proliferation inhibition
Summary of the method: as §2

[14] = MIC in vitro anti-bacterial experiments, Gram-positive bacteria; conditions: lowest MIC reached; read-out: minimum inhibitory concentration against Gram-positive bacteria
Text: 1. The invention adopts the two-fold agar dilution method recommended by the operating procedure of antimicrobial susceptibility testing set by American Clinical and Laboratory Standards Institute (CLSI) to determine the Minimum Inhibitory Concentration (MIC) of the test samples against the tested strains.

[15] = concentration of 30 μM, 72 hours, 30 µM

## O=C(C[C@@H](CC1CCCC1)C(=O)N1CC2(CC2)C[C@H]1C(=O)Nc1nc(C(F)(F)F)cs1)NO [Example 73]
[1]; Homo sapiens, HCT-116
  IC50: 6.21 µM
[1]; concentration of 30 μM, 30 µM
  HCT116 inhibition rate/%: 78%
[2]; clinical isolate MSSA 15-3
  Anti-bacterial activity (MIC), strain MSSA 15-3: 0.06 µg/mL
[2]; clinical isolate MSSA 15-4
  Anti-bacterial activity (MIC), strain MSSA 15-4: 0.06 µg/mL
[2]; clinical isolate MSSA 15-5
  Anti-bacterial activity (MIC), strain MSSA 15-5: 0.03 µg/mL
[2]; clinical isolate MSSA 15-6
  Anti-bacterial activity (MIC), strain MSSA 15-6: 0.06 µg/mL
[3]; clinical isolate MSSE 15-3
  Anti-bacterial activity (MIC), strain MSSE 15-3: 0.015 µg/mL
[3]; clinical isolate MSSE 15-4
  Anti-bacterial activity (MIC), strain MSSE 15-4: < 0.008 µg/mL
[3]; clinical isolate MSSE 15-5
  Anti-bacterial activity (MIC), strain MSSE 15-5: < 0.008 µg/mL
[3]; clinical isolate MSSE 15-6
  Anti-bacterial activity (MIC), strain MSSE 15-6: < 0.008 µg/mL
[4]; strain BCA 14-1
  Anti-bacterial activity (MIC): 1 µg/mL
[4]; strain BCA 14-4
  Anti-bacterial activity (MIC): 1 µg/mL
[4]; strain BCA 14-5
  Anti-bacterial activity (MIC): 0.25 µg/mL
[4]; strain BCA 14-6
  Anti-bacterial activity (MIC): 1 µg/mL
[4]; strain BCA 14-7
  Anti-bacterial activity (MIC): 0.125 µg/mL
[4]; strain BCA 14-8
  Anti-bacterial activity (MIC): 0.25 µg/mL
[4]; strain BCA 14-10
  Anti-bacterial activity (MIC): 0.125 µg/mL
[5]; strain EFM 15-1
  Anti-bacterial activity (MIC): 1 µg/mL
[5]; strain EFM 15-2
  Anti-bacterial activity (MIC): 1 µg/mL
[5]; strain EFM 15-3
  Anti-bacterial activity (MIC): 0.125 µg/mL
[5]; strain EFM 15-4
  Anti-bacterial activity (MIC): 1 µg/mL
[5]; strain EFM 15-5
  Anti-bacterial activity (MIC): 0.125 µg/mL
[5]; strain EFM 15-6
  Anti-bacterial activity (MIC): 1 µg/mL
[6]; clinical isolate MRSA 15-1
  Anti-bacterial activity (MIC), strain MRSA 15-1: 0.03 µg/mL
[6]; clinical isolate MRSA 15-2
  Anti-bacterial activity (MIC), strain MRSA 15-2: 0.06 µg/mL
[6]; clinical isolate MRSA 15-3
  Anti-bacterial activity (MIC), strain MRSA 15-3: 0.06 µg/mL
[6]; clinical isolate MRSA 15-4
  Anti-bacterial activity (MIC), strain MRSA 15-4: 0.06 µg/mL
[7]; clinical isolate MRSE 15-1
  Anti-bacterial activity (MIC), strain MRSE 15-1: < 0.008 µg/mL
[7]; clinical isolate MRSE 15-2
  Anti-bacterial activity (MIC), strain MRSE 15-2: 0.015 µg/mL
[7]; clinical isolate MRSE 15-3
  Anti-bacterial activity (MIC), strain MRSE 15-3: < 0.008 µg/mL
[7]; clinical isolate MRSE 15-7
  Anti-bacterial activity (MIC), strain MRSE 15-7: 0.06 µg/mL
[8]; clinical isolate ECO+ 15-1
  Anti-bacterial activity (MIC), strain ECO+ 15-1: 16 µg/mL
[8]; clinical isolate ECO+ 15-2
  Anti-bacterial activity (MIC), strain ECO+ 15-2: 32 µg/mL
[8]; clinical isolate ECO+ 15-3
  Anti-bacterial activity (MIC), strain ECO+ 15-3: 32 µg/mL
[8]; clinical isolate ECO+ 15-4
  Anti-bacterial activity (MIC), strain ECO+ 15-4: 32 µg/mL
[8]; clinical isolate ECO− 15-1
  Anti-bacterial activity (MIC), strain ECO− 15-1: 32 µg/mL
[8]; clinical isolate ECO− 15-2
  Anti-bacterial activity (MIC), strain ECO− 15-2: 32 µg/mL
[8]; clinical isolate ECO− 15-3
  Anti-bacterial activity (MIC), strain ECO− 15-3: 32 µg/mL
[8]; clinical isolate ECO− 15-4
  Anti-bacterial activity (MIC), strain ECO− 15-4: 32 µg/mL
[9]
  Anti-bacterial activity (MIC): 1 µg/mL
[10]; strain EFA 15-1
  Anti-bacterial activity (MIC): 2 µg/mL
[10]; strain EFA 15-2
  Anti-bacterial activity (MIC): 2 µg/mL
[10]; strain EFA 15-3
  Anti-bacterial activity (MIC): 2 µg/mL
[10]; strain EFA 15-4
  Anti-bacterial activity (MIC): 2 µg/mL
[10]; strain EFA 15-5
  Anti-bacterial activity (MIC): 2 µg/mL
[10]; strain EFA 15-6
  Anti-bacterial activity (MIC): 2 µg/mL
[10]; strain EFA 15-9
  Anti-bacterial activity (MIC): 2 µg/mL
[11]; Homo sapiens, MGC-803, 72 h, concentration of 30 μM
  inhibition at 30 µM: > 50%
[11]; Homo sapiens, MGC-803, 72 hours
  IC50: 12.7 µM
[11]; [15]
  Inhibition of proliferation, Gastric cancer MGC-803: 65%
[12]; Homo sapiens, Bel-7402, 72 hours
  IC50: 10 µM
[12]; [15]
  Inhibition of proliferation, Liver cancer BEL-7402: 81%
[13]; Homo sapiens, A549, 72 h, concentration of 30 μM
  inhibition at 30 µM: > 50%
[13]; Homo sapiens, A549, 72 hours
  IC50: 5.12 µM
[13]; [15]
  Inhibition of proliferation, Lung cancer A549: 63%
[14]
  MIC: < 0.008 µg/mL
